Assay results taken from patent US20220081415A1, “Amino Acid Derivatives for the Treatment of Inflammatory Diseases” (The Roskamp Institute, priority 2019, published 2022).
Where a name gives a salt, the structure may show the parent alone.

The molecules below were run on NF-kB activation induced by TNFα (assay: TNFα Luciferase assay: inhibition of NF-kB activation induced by TNFα in HEK293/NF-kB luciferase cells). Conditions: 25 ng/ml of TNF-α for four hours, quadruplicate, read-out: IC50, concentration at which NF-kB activation was reduced by 50%.
Type: cell-based
Protocol: Determination of Inhibition of NF-kB Activation Induced by TNFα . . . In Vitro Assay
The ability of a compound disclosed herein to inhibit NFkB activation induced by TNFα was determined using the TNFα Luciferase assay. The HEK293/NF-kB luciferase cell line was obtained by cotransfection of pNFkB-luc vector with pHyg (Panomics, CA, USA) followed by hygromycin selection. HEK293/NFkB Luciferase cells were grown in DMEM medium supplemented with 10% fetal bovine serum, 100 U/ml of penicillin, 100 ng/ml of streptomycin/Fungizone, and 100 μg/ml of hygromycin B as the selecting agent. HEK293 NFkB Luciferase cells were grown in T75 flasks (Nunc™ Cell Culture Treated EasYFlasks™) in a cell culture incubator at 37° C. and 5% CO2.
Confluent T75 cell culture flasks (approximately 8-10 million of cells per flask) were washed with 10 ml of sterile PBS (without calcium and magnesium) under a biosafety cabinet. After aspiration of the PBS with a sterile glass pipette, the layer of cells (for each T75 flask) was covered with 1 ml of TrypLE™ Express without phenol red (Gibco) at room temperature. After one minute of incubation, HEK293 were mechanically resuspended in the TrypLE by tapping the side of the flask. The cells were then resuspended with 10 ml of pre-warmed complete culture medium and transferred to a conical tube. Cells were centrifuged for 5 minutes at 4000 rpm (1000 g) at room temperature. The cellular pellet was resuspended with 24 ml of pre-warmed cell culture media and […] of cell suspension (approximately 80,000 cells per well) was plated per well in 96-well cell culture plates (Costar #3599, Corning, N.Y., USA) using a multichannel pipette and reversed pipetting to prevent air bubble formation. After plating, the cells were maintained overnight in the cell culture incubator before being treated. For each 96 well cell culture plate, 8 wells were used as “control wells” (only culture medium added) and to 8 wells only TNFα was added. The NF-kB Luciferase reporter cell line was challenged with 25 ng/ml of TNF-α for four hours in the presence and absence (control conditions) of a dose range of the different compounds to be tested. For each compound, a dose range of concentrations was tested in quadruplicate and used to determine an IC50.
Luciferase activity was monitored using the Luc-Screen® Extended-Glow Luciferase Reporter Gene Assay System by chemoluminescence according to the instruction of the manufacturer (Invitrogen) and a BioTek Synergy HT plate reader (BioTek Instruments, VT, USA).
Work on “mixture of 2-((S)-1-oxo-1-((S)-6-(pyridin-3-yl)-5,6-dihydropyridin-1(2H)-yl)butan-2-yl)isoindoline-1,3-dione and 2-((R)-1-oxo-1-((R)-6-(pyridin-3-yl)-5,6-dihydropyridin-1(2H)-yl)butan-2-yl)isoindoline-1,3-dione [Compound 5]” yielded an IC50 of 925000 nM.

Same assay, conditions: Homo sapiens, 4 h, 25 ng/ml of TNF-α for four hours, quadruplicate, read-out: IC50, concentration at which NF-kB activation was reduced by 50%
For `COc1ccccc1C(=O)N[C@H](Cc1ccccc1)C(=O)N1CC=CCC1c1cccnc1` (stereo partly drawn) [Compound 32, 2-methoxy-N-((2R)-1-oxo-3-phenyl-1-(6-(pyridin-3-yl)-5,6-dihydropyridin-1(2H)-yl)propan-2-yl)benzamide], the IC50 was 8600 nM.
Work on `CCOc1cccc(C(=O)N[C@@H](Cc2ccccc2)C(=O)N2CC=CCC2c2cccnc2)c1` (stereo partly drawn) [Compound 33, 3-ethoxy-N-((2S)-1-oxo-3-phenyl-1-(6-(pyridin-3-yl)-5,6-dihydropyridin-1(2H)-yl)propan-2-yl)benzamide] yielded an IC50 of 1800 nM.
`C[C@H](NC(=O)c1ccc(Cl)cc1)C(=O)N1CC=CCC1c1cccnc1` (stereo partly drawn) [Compound 14, 4-chloro-N-((2S)-1-oxo-1-(6-(pyridin-3-yl)-5,6-dihydropyridin-1(2H)-yl)propan-2-yl)benzamide] was tested, and the IC50 was 170000 nM.
In the case of `O=C(NC(Cc1ccccc1)C(=O)N1CC=CCC1c1cccnc1)c1cccc(C(F)(F)F)c1` (stereo not shown) [Compound 23, N-(1-oxo-3-phenyl-1-(6-(pyridin-3-yl)-5,6-dihydropyridin-1(2H)-yl)propan-2-yl)-3-(trifluoromethyl)benzamide], the IC50 is reported as 6500 nM.
`O=C(NC(Cc1ccccc1)C(=O)N1CC=CCC1c1cccnc1)c1cccc(Cl)c1` (stereo not shown) [Compound 18, 3-chloro-N-(1-oxo-3-phenyl-1-(6-(pyridin-3-yl)-5,6-dihydropyridin-1(2H)-yl)propan-2-yl)benzamide] showed an IC50 of 7000 nM.
In the case of `CCCC(=O)Nc1cccc(C(=O)NC(Cc2ccccc2)C(=O)N2CC=CCC2c2cnc3ccccc3c2)c1` (stereo not shown) [Compound 40, 3-butyramido-N-(1-oxo-3-phenyl-1-(2-(quinolin-3-yl)-3,6-dihydropyridin-1(2H)-yl)propan-2-yl)benzamide], the IC50 is reported as 40 nM.
Molecule `CCCC(=O)Nc1cccc(C(=O)N[C@@H](Cc2ccccc2)C(=O)N2CCCCC2c2cccnc2)c1` (stereo partly drawn) [Compound 63, 3-butyramido-N-((2S)-1-oxo-3-phenyl-1-(2-(pyridin-3-yl)piperidin-1-yl)propan-2-yl)benzamide] has an IC50 of 58.4 nM.
`O=C(N[C@@H](Cc1ccccc1)C(=O)N1CC=CCC1c1cccnc1)c1ccco1` (stereo partly drawn) [Compound 52, N-((2S)-1-oxo-3-phenyl-1-(6-(pyridin-3-yl)-5,6-dihydropyridin-1(2H)-yl)propan-2-yl)furan-2-carboxamide] was tested, and the IC50 was 134 nM.
With `CCCCn1cccc1C(=O)N[C@@H](Cc1ccccc1)C(=O)N1CC=CCC1c1cccnc1` (stereo partly drawn) [Compound 61, 1-butyl-N-((2S)-1-oxo-3-phenyl-1-(6-(pyridin-3-yl)-5,6-dihydropyridin-1(2H)-yl)propan-2-yl)-1H-pyrrole-2-carboxamide] the IC50 was 708 nM.
In the case of `O=C(N[C@@H](Cc1ccccc1)C(=O)N1CC=CCC1c1cccnc1)c1cccc(NC(=O)C2CCC2)c1` (stereo partly drawn) [Compound 45, 3-(cyclobutanecarboxamido)-N-((2S)-1-oxo-3-phenyl-1-(6-(pyridin-3-yl)-5,6-dihydropyridin-1(2H)-yl)propan-2-yl)benzamide], the IC50 is reported as 75.4 nM.
In the case of `COc1cc(C(=O)N[C@@H](Cc2ccccc2)C(=O)N2CC=CCC2c2cccnc2)ccc1F` (stereo partly drawn) [Compound 34, 4-fluoro-3-methoxy-N-((2S)-1-oxo-3-phenyl-1-(6-(pyridin-3-yl)-5,6-dihydropyridin-1(2H)-yl)propan-2-yl)benzamide], the IC50 is reported as 2500 nM.
`COc1cccc(C(=O)NC(Cc2ccccc2)C(=O)N2CC=CCC2c2cccnc2)c1` (stereo not shown) [Compound 16, 3-methoxy-N-(1-oxo-3-phenyl-1-(6-(pyridin-3-yl)-5,6-dihydropyridin-1 (2H)-yl)propan-2-yl)benzamide] showed an IC50 of 2000 nM.
With `CCCCNc1cccc(C(=O)N[C@@H](Cc2ccccc2)C(=O)N2CC=CCC2c2cccnc2)c1` (stereo partly drawn) [Compound 60, 3-(butylamino)-N-((2S)-1-oxo-3-phenyl-1-(6-(pyridin-3-yl)-5,6-dihydropyridin-1(2H)-yl)propan-2-yl)benzamide] the IC50 was 216 nM.
With `C[C@@H](C(=O)N1CC=CCC1c1cccnc1)N1C(=O)c2ccccc2C1=O` (stereo partly drawn) [Compound 1, 2-((2S)-1-oxo-1-(6-(pyridin-3-yl)-5,6-dihydropyridin-1(2H)-yl)propan-2-yl)isoindoline-1,3-dione] the IC50 was 375000 nM.
Work on `NCCC(=O)Nc1cccc(C(=O)N[C@@H](Cc2ccccc2)C(=O)N2CC=CCC2c2cccnc2)c1` (stereo partly drawn) [Compound 54, 3-(3-aminopropanamido)-N-((2S)-1-oxo-3-phenyl-1-(6-(pyridin-3-yl)-5,6-dihydropyridin-1(2H)-yl)propan-2-yl)benzamide hydrochloride] yielded an IC50 of 186 nM.
`CC[C@@H](C)C(=O)Nc1cccc(C(=O)N[C@@H](Cc2ccccc2)C(=O)N2CC=CCC2c2cccnc2)c1` (stereo partly drawn) [Compound 58, 3-((R)-2-methylbutanamido)-N-((2S)-1-oxo-3-phenyl-1-(6-(pyridin-3-yl)-5,6-dihydropyridin-1(2H)-yl)propan-2-yl)benzamide] showed an IC50 of 185 nM.
For `COc1ccc(C)c(C(=O)N[C@H](Cc2ccccc2)C(=O)N2CC=CCC2c2cccnc2)c1` (stereo partly drawn) [Compound 29, 5-methoxy-2-methyl-N-((2R)-1-oxo-3-phenyl-1-(6-(pyridin-3-yl)-5,6-dihydropyridin-1(2H)-yl)propan-2-yl)benzamide], the IC50 was 8000 nM.
For `COc1cc(F)cc(C(=O)NC(Cc2ccccc2)C(=O)N2CC=CCC2c2cccnc2)c1` (stereo not shown) [Compound 24, 3-fluoro-5-methoxy-N-(1-oxo-3-phenyl-1-(6-(pyridin-3-yl)-5,6-dihydropyridin-1(2H)-yl)propan-2-yl)benzamide], the IC50 was 4000 nM.
With `COc1ccc(C(=O)NC(Cc2ccccc2)C(=O)N2CC=CCC2c2cccnc2)cc1OC` (stereo not shown) [Compound 21, 3,4-dimethoxy-N-(1-oxo-3-phenyl-1-(6-(pyridin-3-yl)-5,6-dihydropyridin-1(2H)-yl)propan-2-yl)benzamide] the IC50 was 4500 nM.
Molecule `C[C@@H](C(=O)N1CC=CC[C@H]1c1cccnc1)N1C(=O)c2ccccc2C1=O` [Compound 2, 2-((S)-1-oxo-1-((S)-6-(pyridin-3-yl)-5,6-dihydropyridin-1(2H)-yl)propan-2-yl)isoindoline-1,3-dione] has an IC50 of 425000 nM.
With `CCCC(=O)Nc1cccc(C(=O)N[C@@H](Cc2ccc3ccccc3c2)C(=O)N2CC=CCC2c2cccnc2)c1` (stereo partly drawn) [Compound 65, 3-butyramido-N-((2S)-3-(naphthalen-2-yl)-1-oxo-1-(6-(pyridin-3-yl)-5,6-dihydropyridin-1(2H)-yl)propan-2-yl)benzamide] the IC50 was 704 nM.
For `CC(C)(C)C(=O)Nc1cccc(C(=O)N[C@@H](Cc2ccccc2)C(=O)N2CC=CCC2c2cccnc2)c1` (stereo partly drawn) [Compound 43, N-((2S)-1-oxo-3-phenyl-1-(6-(pyridin-3-yl)-5,6-dihydropyridin-1(2H)-yl)propan-2-yl)-3-pivalamidobenzamide], the IC50 was 129 nM.
Work on `CCCC(=O)Nc1cccc(C(=O)N[C@@H](CC2CCCCC2)C(=O)N2CC=CCC2c2cccnc2)c1` (stereo partly drawn) [Compound 66, 3-butyramido-N-((2S)-3-cyclohexyl-1-oxo-1-(6-(pyridin-3-yl)-5,6-dihydropyridin-1(2H)-yl)propan-2-yl)benzamide] yielded an IC50 of 346 nM.
For `COc1cccc(C(=O)N[C@@H](C)C(=O)N2CC=CCC2c2cccnc2)c1` (stereo partly drawn) [Compound 10, 3-methoxy-N-((2S)-1-oxo-1-(6-(pyridin-3-yl)-5,6-dihydropyridin-1(2H)-yl)propan-2-yl)benzamide], the IC50 was 125000 nM.
In the case of `O=C(N[C@@H](Cc1ccccc1)C(=O)N1CC=CCC1c1cccnc1)c1ccc[nH]1` (stereo partly drawn) [Compound 56, N-((2S)-1-oxo-3-phenyl-1-(6-(pyridin-3-yl)-5,6-dihydropyridin-1(2H)-yl)propan-2-yl)-1H-pyrrole-2-carboxamide], the IC50 is reported as 968 nM.
In the case of `CCCC(=O)Nc1cccc(C(=O)NC(C)C(=O)N2CC=CCC2c2cnc3ccccc3c2)c1` (stereo not shown) [Compound 68, 3-butyramido-N-(1-oxo-1-(2-(quinolin-3-yl)-3,6-dihydropyridin-1(2H)-yl)propan-2-yl)benzamide], the IC50 is reported as 850 nM.
In the case of `COc1cc(C(=O)N[C@H](Cc2ccccc2)C(=O)N2CC=CCC2c2cccnc2)ccc1F` (stereo partly drawn) [Compound 31, 4-fluoro-3-methoxy-N-((2R)-1-oxo-3-phenyl-1-(6-(pyridin-3-yl)-5,6-dihydropyridin-1(2H)-yl)propan-2-yl)benzamide], the IC50 is reported as 1700 nM.
